Laboratory results from the supplement of paper PMC10307832.

Columns and labels:
Test in all cases: relative viability (nuclei count vs DMSO), 5 days (fraction); higher = more cells survive
[1] = compound: Nc1ccn([C@@H]2O[C@H](CO)[C@@H](O)C2(F)F)c(=O)n1 [Gemcitabine] + C[C@@H](Oc1cc(-c2cnn(C3CCNCC3)c2)cnc1N)c1c(Cl)ccc(F)c1Cl [Crizotinib] (partner 1 µM)
Summary of the method: (§1)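 Nuclei were stained with Hoechst during a one-step fixation (final 0.05% Triton X-100, 1% formaldehyde, 1 ug/ml Hoechst) carried out 5 days after dosing, then counted on 4× images. The cells, lung cancer lines in 1536-well plates, had been dosed by pin tool the day after seeding with one drug alone or a fixed anchor-drug dose plus five library-drug doses (not always all listed) in √10 steps. Relative viability is the nuclei count in treated wells divided by that in vehicle wells, and each value is the median of duplicate plates.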

[2] = compound: Nc1ccn([C@@H]2O[C@H](CO)[C@@H](O)C2(F)F)c(=O)n1 [Gemcitabine] + COc1cccc2cc(-c3nc([C@H]4CC[C@H](C(=O)O)CC4)n4ncnc(N)c34)[nH]c12 [OSI-027] (partner 0.5 µM)
Summary of the method: as §1

[3] = compound: Nc1ccn([C@@H]2O[C@H](CO)[C@@H](O)C2(F)F)c(=O)n1 [Gemcitabine] + CC(=O)Nc1cccc(-n2c(=O)n(C3CC3)c(=O)c3c(Nc4ccc(I)cc4F)n(C)c(=O)c(C)c32)c1 [Trametinib] (partner 0.02 µM)
Summary of the method: as §1

[4] = compound: Nc1ccn([C@@H]2O[C@H](CO)[C@@H](O)C2(F)F)c(=O)n1 [Gemcitabine] + N=C(N)NC(=N)NCCc1ccccc1 [Phenformin] (partner 250 µM)
Summary of the method: as §1

NCI-H3122
relative viability ([1]; first compound 0.001 µM): 0.306
relative viability ([1]; first compound 0.003162 µM): 0.27
relative viability ([1]; first compound 0.01 µM): 0.253
relative viability ([1]; first compound 0.03162 µM): 0.135
relative viability ([1]; first compound 0.1 µM): 0.119
relative viability ([2]; first compound 0.001 µM): 1.05
relative viability ([2]; first compound 0.003162 µM): 0.918
relative viability ([2]; first compound 0.01 µM): 0.246
relative viability ([2]; first compound 0.03162 µM): 0.133
relative viability ([2]; first compound 0.1 µM): 0.112
relative viability ([3]; first compound 0.001 µM): 0.219
relative viability ([3]; first compound 0.003162 µM): 0.237
relative viability ([3]; first compound 0.01 µM): 0.174
relative viability ([3]; first compound 0.03162 µM): 0.141
relative viability ([3]; first compound 0.1 µM): 0.0965
relative viability ([4]; first compound 0.001 µM): 0.436
relative viability ([4]; first compound 0.003162 µM): 0.322
relative viability ([4]; first compound 0.01 µM): 0.165
relative viability ([4]; first compound 0.03162 µM): 0.13
relative viability ([4]; first compound 0.1 µM): 0.121

PC-3 [JPC-3]
relative viability ([1]; first compound 0.001 µM): 1
relative viability ([1]; first compound 0.003162 µM): 0.838
relative viability ([1]; first compound 0.01 µM): 0.611
relative viability ([1]; first compound 0.03162 µM): 0.295
relative viability ([1]; first compound 0.1 µM): 0.246
relative viability ([2]; first compound 0.001 µM): 0.799
relative viability ([2]; first compound 0.003162 µM): 0.656
relative viability ([2]; first compound 0.01 µM): 0.378
relative viability ([2]; first compound 0.03162 µM): 0.259
relative viability ([2]; first compound 0.1 µM): 0.257
relative viability ([3]; first compound 0.001 µM): 0.73
relative viability ([3]; first compound 0.003162 µM): 0.424
relative viability ([3]; first compound 0.01 µM): 0.469
relative viability ([3]; first compound 0.03162 µM): 0.426
relative viability ([3]; first compound 0.1 µM): 0.417
relative viability ([4]; first compound 0.001 µM): 0.503
relative viability ([4]; first compound 0.003162 µM): 0.446
relative viability ([4]; first compound 0.01 µM): 0.365
relative viability ([4]; first compound 0.03162 µM): 0.325
relative viability ([4]; first compound 0.1 µM): 0.287

PC-14
relative viability ([1]; first compound 0.001 µM): 0.903
relative viability ([1]; first compound 0.003162 µM): 0.569
relative viability ([1]; first compound 0.01 µM): 0.308
relative viability ([1]; first compound 0.03162 µM): 0.0832
relative viability ([1]; first compound 0.1 µM): 0.0612
relative viability ([2]; first compound 0.001 µM): 0.595
relative viability ([2]; first compound 0.003162 µM): 0.156
relative viability ([2]; first compound 0.01 µM): 0.0375
relative viability ([2]; first compound 0.03162 µM): 0.0459
relative viability ([2]; first compound 0.1 µM): 0.0298
relative viability ([3]; first compound 0.001 µM): 0.885
relative viability ([3]; first compound 0.003162 µM): 0.279
relative viability ([3]; first compound 0.01 µM): 0.037
relative viability ([3]; first compound 0.03162 µM): 0.0374
relative viability ([3]; first compound 0.1 µM): 0.0267
relative viability ([4]; first compound 0.001 µM): 0.558
relative viability ([4]; first compound 0.003162 µM): 0.113
relative viability ([4]; first compound 0.01 µM): 0.0527
relative viability ([4]; first compound 0.03162 µM): 0.0312
relative viability ([4]; first compound 0.1 µM): 0.0491

RERF-LC-KJ
relative viability ([1]; first compound 0.001 µM): 0.901
relative viability ([1]; first compound 0.003162 µM): 0.866
relative viability ([1]; first compound 0.01 µM): 0.844
relative viability ([1]; first compound 0.03162 µM): 0.73
relative viability ([1]; first compound 0.1 µM): 0.252
relative viability ([2]; first compound 0.001 µM): 0.62
relative viability ([2]; first compound 0.003162 µM): 0.508
relative viability ([2]; first compound 0.01 µM): 0.418
relative viability ([2]; first compound 0.03162 µM): 0.261
relative viability ([2]; first compound 0.1 µM): 0.225
relative viability ([3]; first compound 0.001 µM): 0.893
relative viability ([3]; first compound 0.003162 µM): 0.827
relative viability ([3]; first compound 0.01 µM): 0.845
relative viability ([3]; first compound 0.03162 µM): 0.386
relative viability ([3]; first compound 0.1 µM): 0.24
relative viability ([4]; first compound 0.001 µM): 0.454
relative viability ([4]; first compound 0.003162 µM): 0.455
relative viability ([4]; first compound 0.01 µM): 0.404
relative viability ([4]; first compound 0.03162 µM): 0.285
relative viability ([4]; first compound 0.1 µM): 0.26

SK-LU-1
relative viability ([1]; first compound 0.001 µM): 1.02
relative viability ([1]; first compound 0.003162 µM): 0.364
relative viability ([1]; first compound 0.01 µM): 0.258
relative viability ([1]; first compound 0.03162 µM): 0.208
relative viability ([1]; first compound 0.1 µM): 0.252
relative viability ([2]; first compound 0.001 µM): 0.352
relative viability ([2]; first compound 0.003162 µM): 0.208
relative viability ([2]; first compound 0.01 µM): 0.146
relative viability ([2]; first compound 0.03162 µM): 0.165
relative viability ([2]; first compound 0.1 µM): 0.143
relative viability ([3]; first compound 0.001 µM): 0.512
relative viability ([3]; first compound 0.003162 µM): 0.373
relative viability ([3]; first compound 0.01 µM): 0.267
relative viability ([3]; first compound 0.03162 µM): 0.161
relative viability ([3]; first compound 0.1 µM): 0.241
relative viability ([4]; first compound 0.001 µM): 0.578
relative viability ([4]; first compound 0.003162 µM): 0.272
relative viability ([4]; first compound 0.01 µM): 0.154
relative viability ([4]; first compound 0.03162 µM): 0.115
relative viability ([4]; first compound 0.1 µM): 0.124

SK-MES-1
relative viability ([1]; first compound 0.001 µM): 0.923
relative viability ([1]; first compound 0.003162 µM): 0.809
relative viability ([1]; first compound 0.01 µM): 0.221
relative viability ([1]; first compound 0.03162 µM): 0.179
relative viability ([1]; first compound 0.1 µM): 0.164
relative viability ([2]; first compound 0.001 µM): 0.367
relative viability ([2]; first compound 0.003162 µM): 0.195
relative viability ([2]; first compound 0.01 µM): 0.142
relative viability ([2]; first compound 0.03162 µM): 0.122
relative viability ([2]; first compound 0.1 µM): 0.127
relative viability ([3]; first compound 0.001 µM): 0.605
relative viability ([3]; first compound 0.003162 µM): 0.551
relative viability ([3]; first compound 0.01 µM): 0.25
relative viability ([3]; first compound 0.03162 µM): 0.237
relative viability ([3]; first compound 0.1 µM): 0.178
relative viability ([4]; first compound 0.001 µM): 0.552
relative viability ([4]; first compound 0.003162 µM): 0.249
relative viability ([4]; first compound 0.01 µM): 0.191
relative viability ([4]; first compound 0.03162 µM): 0.158
relative viability ([4]; first compound 0.1 µM): 0.154

SW 1573
relative viability ([1]; first compound 0.001 µM): 0.997
relative viability ([1]; first compound 0.003162 µM): 0.728
relative viability ([1]; first compound 0.01 µM): 0.202
relative viability ([1]; first compound 0.03162 µM): 0.12
relative viability ([1]; first compound 0.1 µM): 0.0565
relative viability ([2]; first compound 0.001 µM): 0.512
relative viability ([2]; first compound 0.003162 µM): 0.381
relative viability ([2]; first compound 0.01 µM): 0.0711
relative viability ([2]; first compound 0.03162 µM): 0.0797
relative viability ([2]; first compound 0.1 µM): 0.0431
relative viability ([3]; first compound 0.001 µM): 0.46
relative viability ([3]; first compound 0.003162 µM): 0.405
relative viability ([3]; first compound 0.01 µM): 0.117
relative viability ([3]; first compound 0.03162 µM): 0.0639
relative viability ([3]; first compound 0.1 µM): 0.0615
relative viability ([4]; first compound 0.001 µM): 0.353
relative viability ([4]; first compound 0.003162 µM): 0.202
relative viability ([4]; first compound 0.01 µM): 0.104
relative viability ([4]; first compound 0.03162 µM): 0.0718
relative viability ([4]; first compound 0.1 µM): 0.0652

UMC-11
relative viability ([1]; first compound 0.001 µM): 0.746
relative viability ([1]; first compound 0.003162 µM): 0.574
relative viability ([1]; first compound 0.01 µM): 0.598
relative viability ([1]; first compound 0.03162 µM): 0.549
relative viability ([1]; first compound 0.1 µM): 0.233
relative viability ([2]; first compound 0.001 µM): 0.474
relative viability ([2]; first compound 0.003162 µM): 0.474
relative viability ([2]; first compound 0.01 µM): 0.478
relative viability ([2]; first compound 0.03162 µM): 0.352
relative viability ([2]; first compound 0.1 µM): 0.197
relative viability ([3]; first compound 0.001 µM): 0.627
relative viability ([3]; first compound 0.003162 µM): 0.635
relative viability ([3]; first compound 0.01 µM): 0.716
relative viability ([3]; first compound 0.03162 µM): 0.609
relative viability ([3]; first compound 0.1 µM): 0.161
relative viability ([4]; first compound 0.001 µM): 0.384
relative viability ([4]; first compound 0.003162 µM): 0.349
relative viability ([4]; first compound 0.01 µM): 0.328
relative viability ([4]; first compound 0.03162 µM): 0.275
relative viability ([4]; first compound 0.1 µM): 0.185
